pIC50: −log10 of the molar value.
Tested on: DMS 114 tumor spheroids, viability % test/control
Assay: Anticancer human tumor DMS 114 cell line growth inhibition;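 also: spheroids exposed to compounds for 7 days before read-out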;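 as to viability, T/C: luminescence used as a proxy for viable cells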
Details: spheroids with HUVEC and MSC; for pIC50: curve of first compound; for viability, T/C: stronger effect = lower value
Method in brief: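 Single agents and combinations were tested on spheroids built from tumor cells plus HUVEC and hMSC, at half-log dilutions starting at or near clinical Cmax, else 10 microM; final DMSO 0.25% (v/v).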

[1] = second compound 1 µM, first compound 0.00949 µM
[2] = second compound 1 µM, first compound 0.03 µM
[3] = second compound 1 µM, first compound 0.0949 µM
[4] = second compound 1 µM, first compound 0.3 µM
[5] = second compound 1 µM, first compound 0.949 µM
[6] = second compound 1 µM, first compound 3 µM
[7] = second compound 3.16 µM, first compound 0.00949 µM
[8] = second compound 3.16 µM, first compound 0.03 µM
[9] = second compound 3.16 µM, first compound 0.0949 µM
[10] = second compound 3.16 µM, first compound 0.3 µM
[11] = second compound 3.16 µM, first compound 0.949 µM
[12] = second compound 3.16 µM, first compound 3 µM
[13] = second compound 10 µM, first compound 0.00949 µM
[14] = second compound 10 µM, first compound 0.03 µM
[15] = second compound 10 µM, first compound 0.0949 µM
[16] = second compound 10 µM, first compound 0.3 µM
[17] = second compound 10 µM, first compound 0.949 µM
[18] = second compound 10 µM, first compound 3 µM
[19] = second compound 31.6 µM, first compound 0.00949 µM
[20] = second compound 31.6 µM, first compound 0.03 µM
[21] = second compound 31.6 µM, first compound 0.0949 µM
[22] = second compound 31.6 µM, first compound 0.3 µM
[23] = second compound 31.6 µM, first compound 0.949 µM
[24] = second compound 31.6 µM, first compound 3 µM
[25] = second compound 100 µM, first compound 0.00949 µM
[26] = second compound 100 µM, first compound 0.03 µM
[27] = second compound 100 µM, first compound 0.0949 µM
[28] = second compound 100 µM, first compound 0.3 µM
[29] = second compound 100 µM, first compound 0.949 µM
[30] = second compound 100 µM, first compound 3 µM

Q: What does the source list for CNCc1ccc(-c2cc(-c3nc(-c4ccc(S(=O)(=O)C(C)C)cc4)cnc3N)on2)cc1 + Cn1nnc2c(C(N)=O)ncn2c1=O?
A: pIC50 (second compound 1 µM): 6.73; pIC50 (second compound 3.16 µM): 6.75; pIC50 (second compound 10 µM): 6.76; pIC50 (second compound 31.6 µM): 6.79; pIC50 (second compound 100 µM): 7.04; viability, T/C [1]: 103%; viability, T/C [2]: 94.4%; viability, T/C [3]: 80.9%; viability, T/C [4]: 28.3%; viability, T/C [5]: 5.64%; viability, T/C [6]: 0.18%; viability, T/C [7]: 102%; viability, T/C [8]: 103%; viability, T/C [9]: 77.6%; viability, T/C [10]: 27%; viability, T/C [11]: 3.9%; viability, T/C [12]: 0.24%; viability, T/C [13]: 101%; viability, T/C [14]: 99.3%; viability, T/C [15]: 72.7%; viability, T/C [16]: 30.2%; viability, T/C [17]: 2.75%; viability, T/C [18]: 0.19%; viability, T/C [19]: 114%; viability, T/C [20]: 92%; viability, T/C [21]: 75.8%; viability, T/C [22]: 22.4%; viability, T/C [23]: 2.81%; viability, T/C [24]: 0.23%; viability, T/C [25]: 89.7%; viability, T/C [26]: 83.3%; viability, T/C [27]: 47.4%; viability, T/C [28]: 16.1%; viability, T/C [29]: 2.42%; viability, T/C [30]: 0.69%

Q: With Cc1sc2c(c1C)C(c1ccc(Cl)cc1)=NC(CC(=O)Nc1ccc(O)cc1)c1nnc(C)n1-2 (stereo not given) + Cn1nnc2c(C(N)=O)ncn2c1=O as the compound, how does the pIC50 (second compound 1 µM) read?
A: Its pIC50 is 6.80.

Q: What about the pIC50 (second compound 3.16 µM) of the same compound?
A: The pIC50 was 6.71.

Q: And the pIC50 (second compound 10 µM)?
A: The pIC50 was 6.77.

Q: What about the pIC50 (second compound 31.6 µM) of the same compound?
A: Its pIC50 is 6.78.

Q: And the pIC50 (second compound 100 µM)?
A: The pIC50 was 6.94.

Q: And the viability, T/C [1]?
A: Its viability, T/C is 98.8%.

Q: What about the viability, T/C [2] of the same compound?
A: The viability, T/C was 101%.

Q: What about the viability, T/C [3] of the same compound?
A: The viability, T/C was 64.5%.

Q: What about the viability, T/C [4] of the same compound?
A: The viability, T/C was 29.9%.

Q: And the viability, T/C [5]?
A: The viability, T/C was 11.3%.

Q: And the viability, T/C [6]?
A: Its viability, T/C is 6.69%.

Q: And the viability, T/C [7]?
A: The viability, T/C was 104%.

Q: What about the viability, T/C [8] of the same compound?
A: The viability, T/C was 103%.

Q: What about the viability, T/C [9] of the same compound?
A: Its viability, T/C is 81.4%.

Q: What about the viability, T/C [10] of the same compound?
A: The viability, T/C was 30.7%.

Q: What about the viability, T/C [11] of the same compound?
A: Its viability, T/C is 10.7%.

Q: And the viability, T/C [12]?
A: Its viability, T/C is 6.68%.

Q: What about the viability, T/C [13] of the same compound?
A: Its viability, T/C is 102%.

Q: What about the viability, T/C [14] of the same compound?
A: Its viability, T/C is 108%.

Q: And the viability, T/C [15]?
A: The viability, T/C was 71.6%.

Q: What about the viability, T/C [16] of the same compound?
A: Its viability, T/C is 28.1%.

Q: And the viability, T/C [17]?
A: Its viability, T/C is 10.7%.

Q: And the viability, T/C [18]?
A: The viability, T/C was 4.92%.

Q: What about the viability, T/C [19] of the same compound?
A: The viability, T/C was 114%.

Q: What about the viability, T/C [20] of the same compound?
A: The viability, T/C was 100%.

Q: What about the viability, T/C [21] of the same compound?
A: Its viability, T/C is 71%.

Q: What about the viability, T/C [22] of the same compound?
A: Its viability, T/C is 28.6%.

Q: And the viability, T/C [23]?
A: The viability, T/C was 9.45%.

Q: What about the viability, T/C [24] of the same compound?
A: The viability, T/C was 4.67%.

Q: And the viability, T/C [25]?
A: Its viability, T/C is 93.9%.

Q: And the viability, T/C [26]?
A: Its viability, T/C is 93%.

Q: What about the viability, T/C [27] of the same compound?
A: The viability, T/C was 55.1%.

Q: And the viability, T/C [28]?
A: Its viability, T/C is 18.9%.

Q: And the viability, T/C [29]?
A: The viability, T/C was 6.62%.

Q: And the viability, T/C [30]?
A: Its viability, T/C is 2.68%.

Q: How did the pIC50 (second compound 1 µM) turn out when Cn1ncnc1[C@H]1c2n[nH]c(=O)c3cc(F)cc(c23)N[C@@H]1c1ccc(F)cc1 + Cn1nnc2c(C(N)=O)ncn2c1=O was run?
A: Its pIC50 is 6.16.

Q: And the pIC50 (second compound 3.16 µM)?
A: Its pIC50 is 6.19.

Q: What about the pIC50 (second compound 10 µM) of the same compound?
A: Its pIC50 is 6.68.

Q: What about the pIC50 (second compound 31.6 µM) of the same compound?
A: Its pIC50 is over 8.02.

Q: What about the pIC50 (second compound 100 µM) of the same compound?
A: Its pIC50 is over 8.02.

Q: And the viability, T/C [1]?
A: The viability, T/C was 106%.

Q: What about the viability, T/C [2] of the same compound?
A: Its viability, T/C is 107%.

Q: And the viability, T/C [3]?
A: The viability, T/C was 98.8%.

Q: And the viability, T/C [4]?
A: Its viability, T/C is 82.6%.

Q: And the viability, T/C [5]?
A: The viability, T/C was 37.9%.

Q: And the viability, T/C [6]?
A: The viability, T/C was 11.6%.

Q: And the viability, T/C [7]?
A: Its viability, T/C is 112%.

Q: And the viability, T/C [8]?
A: The viability, T/C was 107%.

Q: And the viability, T/C [9]?
A: Its viability, T/C is 97.2%.

Q: And the viability, T/C [10]?
A: Its viability, T/C is 77.2%.

Q: What about the viability, T/C [11] of the same compound?
A: The viability, T/C was 36%.

Q: And the viability, T/C [12]?
A: Its viability, T/C is 14%.

Q: What about the viability, T/C [13] of the same compound?
A: Its viability, T/C is 111%.

Q: And the viability, T/C [14]?
A: The viability, T/C was 82.7%.

Q: And the viability, T/C [15]?
A: Its viability, T/C is 65.8%.

Q: What about the viability, T/C [16] of the same compound?
A: The viability, T/C was 43.4%.

Q: What about the viability, T/C [17] of the same compound?
A: The viability, T/C was 27.1%.

Q: And the viability, T/C [18]?
A: Its viability, T/C is 16.2%.

Q: What about the viability, T/C [19] of the same compound?
A: The viability, T/C was 51.5%.

Q: And the viability, T/C [20]?
A: Its viability, T/C is 39.3%.

Q: What about the viability, T/C [21] of the same compound?
A: The viability, T/C was 32.4%.

Q: What about the viability, T/C [22] of the same compound?
A: Its viability, T/C is 27.6%.

Q: And the viability, T/C [23]?
A: The viability, T/C was 20.7%.

Q: And the viability, T/C [24]?
A: Its viability, T/C is 10.8%.

Q: What about the viability, T/C [25] of the same compound?
A: The viability, T/C was 24.1%.

Q: And the viability, T/C [26]?
A: The viability, T/C was 23.1%.

Q: And the viability, T/C [27]?
A: The viability, T/C was 22.3%.

Q: What about the viability, T/C [28] of the same compound?
A: Its viability, T/C is 19.4%.

Q: And the viability, T/C [29]?
A: The viability, T/C was 14.9%.

Q: And the viability, T/C [30]?
A: Its viability, T/C is 9.45%.

Source: PubChem BioAssay AID1845202 (Molecular Pharmacology Branch, DTP, NCI, 2023)
